These results are taken from patent US10143718B2, “Covalent inhibitors of dual oxidase 1 (DUOX 1)” (The University of Vermont and State Agricultural College, priority 2015, dated 2018).

For series [1], the target named is T1, DUOX1 (Homo sapiens, UniProt Q9NRD9).
T1 construct: endogenous in cells; host or cells: HBE1 (immortalized human bronchial epithelial cells)
As to the kind of experiment: ARP labeling of DUOX1 in HBE1 cells (biotin tag, avidin purification, western blot). Format: binding. The note with it: 0, 10, or 30 micromolar for 30 minutes. The text has this:
Since these various electrophiles act primarily by targeting susceptible cysteine residues by Michael addition, it was believed that they may directly target DUOX1 protein on one of its accessible cysteine residues within its extracellular peroxidase homology (PHD) domain. […] Moreover, since the PHD domain is unique to DUOX and not present in other NADPH oxidase isoforms, this targeting approach would avoid non-selective actions on these other isoforms, a common problem with most NADPH oxidase inhibitors currently in development. To determine whether acrolein-mediated inhibition of DUOX1 activity (FIG. 4) was associated with direct targeting of DUOX1 protein, HBE1 cells were treated with 0, 10, or 30 micromolar acrolein for 30 minutes and derivatized cell lysates with aldehyde reactive probe (ARP; Pierce), which converts acrolein-induced Michael adducts to induce a biotin tag. Biotin-tagged proteins were subsequently purified by avidin chromatography and collected biotin-tagged proteins (eluates) were then analyzed by 10% SDS-PAGE and western blotting with an alpha-DUOX1 antibody. Whole cell lysate were analyzed accordingly as loading controls.
(A western blot detects proteins with antibodies after separation by electrophoresis.)

Series [2] has as its system mouse tracheal epithelial cells. The series can be described thus: Allergen-induced cytokine secretion from cultured mouse tracheal epithelial cells. Format: cell-based. The note with it: for HDM-induced IL-33 secretion (culture media): mouse tracheal epithelial cells, pretreated 30 minutes, then HDM for 2 hrs. How it is done: (§1) Cells were pretreated with acrolein (ACR), cinnamaldehyde (CIN), curcumin (Curc) or sulforaphane (SFN) for 30 minutes and then stimulated with HDM for 2 hrs. IL-33 was measured in culture media.

Series [3] has as its system human bronchial epithelial cell line HBE1. As to the kind of experiment: Allergen-induced cytokine secretion from HBE1 cells. Format: cell-based. To be noted: acrolein pretreatment. How it is done:
as §1

In series [4] the test system is cellular GSH. As to the kind of experiment: Cellular GSH depletion. Format: cell-based. To be noted: at concentrations inhibiting allergen-induced IL-33 secretion and H2O2 production.
Series [5] has as its system allergic inflammation and mucus metaplasia. The series can be described thus: Acrolein exposure in a mouse model of allergic asthma. Format: in vivo. The note with it: non-toxic doses of acrolein.
Series [6] concerns the target T1, DUOX1. As to the kind of experiment: Extracellular H2O2 production by HBE1 cells as a measure of DUOX1 activation (lactoperoxidase/tyrosine, HPLC). Format: cell-based. The note with it: for ATP-induced H2O2 production: electrophile 30 min prior to ATP stimulation, media collected after 10 min, 1-30 micromolar for food-derived electrophiles. An excerpt:
(§2) Based on identifying the involvement of Ca^2+-dependent DUOX1 activation and subsequent EGFR activation in allergen-induced IL-33 secretion from epithelial cells), the impact of acrolein exposure on allergen-induced Ca^2+ increases, extracellular H2O2 production (as a measure of DUOX1 activation) and EGFR tyrosine phosphorylation (as an indicator of EGFR activation) were studied.
Preliminary studies of DUOX1 targeting by electrophiles. Acrolein (2,3-propenal) is a highly reactive electrophile and a well-recognized environmental pollutant. In this example, other electrophilic compounds with similar chemical reactivity were determined to be capable of inhibiting allergen-induced DUOX1 activation. These studies were performed using immortalized human bronchoepithelial cells (HBE1) which were cultured and exposed to different electrophiles at various doses for 30 min prior to cell stimulation with HDM or with ATP (a known activator of DUOX1). Conditioned culture media was collected 10 min after cell stimulation and mixed for 15 min with 10 micrograms/mL lactoperoxidase (Sigma) and 1 mM tyrosine (Gibco), which results in formation of fluorescent dityrosine product as a function of H2O2 concentration, and was analyzed by HPLC with fluorescence detection and compared with exogenous standards based on similarly treated stock solutions of H2O2. The resulting data were corrected for basal H2O2 production by unstimulated cells and ATP-dependent H2O2 production in the presence of electrophiles were expressed relative to that by ATP alone (which was set at 100%).

For series [7], the system named is EGFR. As to the kind of experiment: Allergen-induced EGFR tyrosine phosphorylation (EGFR activation). The note with it: non-toxic concentrations (3-30 micromolar). Format: cell-based.
Description: as §2

The subject of series [8] is allergen-mediated Ca^2+ increases. The series can be described thus: Allergen-induced Ca2+ increases in epithelial cells. Format: cell-based. To be noted: non-toxic concentrations (3-30 micromolar).
Description: as §2

The subject of series [9] is innate airway responses to HDM. The series can be described thus: Acrolein inhalation, then allergen challenge; BAL cytokines analyzed. Format: in vivo. To be noted: mice; acrolein 5 ppm, 4 hrs; then HDM (50 micrograms) or Alternaria alternata challenge; BAL 1 hour later. The procedure:
Electrophilic compounds can suppress allergic inflammation and innate allergen responses. […] Mice were exposed to acrolein (5 ppm; 4 hrs, and subsequently challenged with HDM (50 micrograms), and BAL cytokines were analyzed 1 hour later.

The structures appear in SMILES notation. “Also recorded” adds a separate entry of the source.

T1 sequence (Q9NRD9 22-1551): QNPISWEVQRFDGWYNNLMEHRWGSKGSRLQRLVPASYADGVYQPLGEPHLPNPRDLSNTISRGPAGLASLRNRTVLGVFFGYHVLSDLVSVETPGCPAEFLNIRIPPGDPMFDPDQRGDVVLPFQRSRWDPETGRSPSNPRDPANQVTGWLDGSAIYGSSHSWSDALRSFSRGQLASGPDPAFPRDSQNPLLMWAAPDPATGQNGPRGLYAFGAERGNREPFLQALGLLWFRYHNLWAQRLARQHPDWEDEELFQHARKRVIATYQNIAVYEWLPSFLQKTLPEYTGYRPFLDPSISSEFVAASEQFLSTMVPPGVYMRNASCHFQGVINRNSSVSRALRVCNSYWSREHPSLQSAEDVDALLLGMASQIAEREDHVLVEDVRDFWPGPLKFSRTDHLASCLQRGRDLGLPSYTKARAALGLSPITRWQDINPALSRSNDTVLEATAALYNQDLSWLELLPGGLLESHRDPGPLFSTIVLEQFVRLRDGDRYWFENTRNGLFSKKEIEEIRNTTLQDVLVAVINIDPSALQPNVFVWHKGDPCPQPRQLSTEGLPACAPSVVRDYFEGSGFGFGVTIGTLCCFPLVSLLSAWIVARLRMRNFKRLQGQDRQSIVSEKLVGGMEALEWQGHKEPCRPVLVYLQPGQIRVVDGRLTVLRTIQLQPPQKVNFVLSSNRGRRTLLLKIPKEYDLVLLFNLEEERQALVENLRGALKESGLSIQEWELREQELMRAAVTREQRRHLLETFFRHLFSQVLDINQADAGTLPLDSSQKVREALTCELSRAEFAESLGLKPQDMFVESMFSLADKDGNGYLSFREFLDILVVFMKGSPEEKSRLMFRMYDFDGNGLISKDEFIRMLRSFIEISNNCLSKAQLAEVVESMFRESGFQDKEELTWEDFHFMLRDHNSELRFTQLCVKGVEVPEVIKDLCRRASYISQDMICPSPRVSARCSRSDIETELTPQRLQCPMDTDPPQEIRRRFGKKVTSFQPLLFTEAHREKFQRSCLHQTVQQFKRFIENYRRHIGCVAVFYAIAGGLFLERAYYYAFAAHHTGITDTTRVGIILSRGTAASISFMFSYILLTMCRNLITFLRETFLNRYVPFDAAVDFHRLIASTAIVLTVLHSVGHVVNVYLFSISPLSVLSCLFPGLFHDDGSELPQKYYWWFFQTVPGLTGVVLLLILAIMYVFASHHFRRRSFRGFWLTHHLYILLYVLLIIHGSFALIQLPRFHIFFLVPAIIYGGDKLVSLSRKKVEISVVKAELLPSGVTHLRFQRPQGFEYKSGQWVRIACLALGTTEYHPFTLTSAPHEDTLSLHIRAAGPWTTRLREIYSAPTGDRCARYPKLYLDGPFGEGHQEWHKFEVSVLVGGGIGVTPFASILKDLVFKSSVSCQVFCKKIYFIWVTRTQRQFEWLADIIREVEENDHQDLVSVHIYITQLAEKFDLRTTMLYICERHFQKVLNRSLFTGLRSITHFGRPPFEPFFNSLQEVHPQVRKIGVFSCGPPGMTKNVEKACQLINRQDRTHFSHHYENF

Turning to `C=CC=O` [acrolein, 2,3-propenal], in [1], the “ARP labeling of DUOX1 (direct adduct with DUOX1)” value is on record as “induced dose-dependent ARP labeling of DUOX1”. Also, the “allergen-induced secretion of IL-33, IL-1α or IL-17E” value in series [2] (cultured tracheal epithelial cells from mice, acrolein pretreatment) was “inhibits allergen-induced secretion of IL-33, IL-1α or IL-17E in a dose-dependent manner”; in series [3], “inhibits allergen-induced secretion of IL-33, IL-1α or IL-17E in a dose-dependent manner”. Besides, the “HDM-induced IL-33 secretion (culture media)” value (“HDM-induced IL-33 secretion” for short) in series [2] is listed as “inhibited HDM-induced IL-33 secretion”. The “cellular GSH depletion” value in series [4] is reported as “occurred in the absence of cellular GSH depletion”. Moreover, the “allergic inflammation and mucus metaplasia” value in series [5] is “dramatically suppress allergic inflammation and mucus metaplasia”. The “ATP-induced H2O2 production” value in series [6] is “dose-dependent inhibition”. Also, in [6] (non-toxic concentrations (3-30 micromolar)), the “allergen-induced extracellular H2O2 production” value was “markedly suppressed; also recorded: inhibits allergen-induced H2O2 production”. The “allergen-induced EGFR autophosphorylation” value in [7] was “markedly suppressed allergen-induced EGFR autophosphorylation”. For the same compound, in [8], the “allergen-mediated Ca^2+ increases” value was “did not affect allergen-mediated Ca^2+ increases”. In [9], the “production of IL-33, IL-1α or IL-17E (BAL cytokines)” value was “dramatically minimized production of IL-33, IL-1α or IL-17E”.
As to `O=C/C=C/c1ccccc1` [cinnamaldehyde, (2E)-3-phenylprop-2-enal], the “HDM-induced IL-33 secretion” value in series [2] was “inhibited HDM-induced IL-33 secretion”. The “ATP-induced H2O2 production” value in series [6] was “capable of inhibiting ATP-mediated H2O2 production; also recorded: dose-dependent inhibition”.
Regarding `COc1cc(/C=C/C(=O)CC(=O)/C=C/c2ccc(O)c(OC)c2)ccc1O` [curcumin, (1E,6E)-1,7-Bis(4-hydroxy-3-methoxyphenyl)-1,6-heptadiene-3,5-dione], in series [2], the “HDM-induced IL-33 secretion” value is listed as “inhibited HDM-induced IL-33 secretion”. The “ATP-induced H2O2 production” value in [6] is listed as “capable of inhibiting ATP-mediated H2O2 production”.
As to `C=CS(=O)(=O)Oc1ccccc1` [phenyl vinyl sulfonate], the “ATP-induced H2O2 production” value in [6] was “dose-dependent inhibition”.
With `C=CS(=O)(=O)c1ccccc1` [phenyl vinyl sulfone], in series [6], the “ATP-induced H2O2 production” value is on record as “Inhibitory effects”.
`C[S+]([O-])CCCCN=C=S` (stereo not shown) [sulforaphane, 1-Isothiocyanato-4-methylsulfinylbutane]: the “HDM-induced IL-33 secretion” value in series [2] was “inhibited HDM-induced IL-33 secretion”. Further, the “ATP-induced H2O2 production” value in series [6] is listed as “capable of inhibiting ATP-mediated H2O2 production; also recorded: dose-dependent inhibition”.
